{"source": "patent US20230143212A1", "about": "(Navinta, LLC, priority 2021, published 2023)", "origin": "cited, not measured here", "key": {"[1]": {"conditions": "for solubility in propylene glycol/water: 25° C."}, "[2]": {"conditions": "orally administered"}, "[3]": {"conditions": "rabbits; composition in polyethylene glycol-300 with and without bile salt"}, "[4]": {"conditions": "ethyl alcohol, DMSO, propylene glycol, polyethylene glycol, glycerol, dimethylformamide"}}, "note": "Values joined by “and” are separate entries in the source; they are usually repeats but may differ in a detail not shown here. Equal values may be shown once. Read-outs that look alike come from different tables or passages of the source.", "data": [{"compound": "COc1ccc2[nH]cc(CCNC(C)=O)c2c1", "note": "[Melatonin, N-[2-(5-Methoxy-1H-indol-3-yl)ethyl] acetamide]", "values": [{"measurement": "solubility in propylene glycol/water", "setting": "[1]; 60% v/v propylene glycol", "value": "about 250 mM and 60 mg/ml"}, {"measurement": "solubility in propylene glycol/water", "setting": "[1]; until reaching 40% v/v propylene glycol", "value": "up to 50 mM and ~ 12 mg/ml"}, {"measurement": "pH dependence of solubility in water", "setting": "[1]; water", "value": "pH-independent solubility"}, {"measurement": "Plasma T½", "setting": "[2]", "value": "~ 50 minutes"}, {"measurement": "oral absorption", "setting": "[2]", "value": "almost completely absorbed"}, {"measurement": "oral bioavailability", "setting": "[2]", "value": "~ 15%"}, {"measurement": "bioavailability via intranasal route", "setting": "[3]", "value": "increased substantially"}, {"measurement": "solubility in organic solvents", "setting": "[4]", "value": "soluble"}]}]}
